Measured values as given in patent US20260097091A1, “ADMINISTRATION OF GLUTATHIONE TRISULFIDE TO AMELIORATE PERIPHERAL NEUROPATHY” (The General Hospital Corporation, priority 2022, published 2026).

Legend:
primary DRG neurons = primary DRG neurons exposed to paclitaxel: Sholl analysis and axonal mitochondria (NF200, MitoTracker); assay type: cell-based, mice; conditions: 500 nM PTNSSS with 100 nM paclitaxel for one hour
Experimental: Primary DRG neurons were prepared from 8 to 10-week old mice as described previously. Briefly, lumber DRG (L1 to L6) were isolated from mice and centrifuged at 176×g (1000 rpm) for 3 minutes. After aspirating the solution, DRG were incubated with Dispase-II Solution (Sigma-Aldrich, Cat No. SCM133) and collagenase type II (Worthington, Cat No. LS004176) for 70 minutes and with 0.25% trypsin for 5 minutes. Subsequently triturated by frame polished glass pipet, neurons were seeded on a 12-well plate with 15 mm coverslip. Cells were incubated in Neurobasal A-medium with 2% B27 supplement (Gibco, Cat No. 10889038), 1% penicillin/streptomycin, 1% Glutamax (Gibco, Cat No. 35050061), and nerve growth factor (Sigma Aldrich, Cat No. N6009) for 24 hours. After 24 hours, they were exposed to 100 nM of paclitaxel with or without 500 nM of GSSSG or PTNSSS for one hour and 50 nM of MitoTracker (Invitrogen, Cat No. M22426) for 30 minutes. After fixing by 4% paraformaldehyde for 10 minutes at room temperature, cells were immersed in 0.2% Triton X-100 in PBS for 7 minutes and washed by PBS. They were incubated with anti-NF200 antibody (1:400, mouse, Sigma-Aldrich, Cat No. N0142) overnight at 4° C. and with the secondary antibody (1:1000, donkey anti-mouse, Abcam, Cat No. ab150105) for one hour at room temperature. After being covered with fluoroshield mounting medium with DAPI (Sigma-Aldrich, Cat No. F6057), 9-10 cells per group (3 mice per group) were imaged on confocal microscopy (ZEISS LSM 800, Carl Zeiss, Thornwood, NY) using a 63× oil immersion objectives lens with 1,024×1,024 pixels image size.
Effects of PTNSSS and GSSSG on axonal integrity were examined in cultured murine primary DRG neurons incubated with paclitaxel. […] Morphology of neurons, the number, length, and branching of neurites, was analyzed by Sholl analysis implemented in ImageJ [30]. Sholl analysis draws equally spaced circles from the soma and counts the number of intersections between neurites and circles to quantify neuronal morphology (FIG. 8C).

[1] = water solubility of PTN-SSS; assay type: physicochemical
From the text: (§1) PTN-SSS was synthesized and provided by Kyowa Hakko Bio Co., Ltd. The purity of PTN-SSS is 96.3%, and PTN-SSS is highly water soluble (>50 g/L). PTN-SSS and PTN (Toronto Research Chemicals, Toronto, ON, Canada) were suspended in distilled water. PTN-SSS is stable in solution at pH 4.0-9.0 at room temperature for at least 4 days. In the PTN-SSS study, distilled water was used as the vehicle alone.

[2] = stability of PTN-SSS in solution; assay type: physicochemical; conditions: pH 4.0-9.0 at room temperature
From the text: as §1

[3] = tissue distribution of orally administered ^34S-labeled GSSSG by LC-MS/MS; assay type: in vivo, mice; conditions: 2 hours after oral 50 mg/kg
Experimental: To determine the tissue distribution of orally-administered GSSSG, ^34S-labelled GSSSG was administered by gavage to each of four mice. ^34S-labelled GSSSG was synthesized and provided by Kyowa Hakko Bio CO., LTD. Two hours after a single dose of ^34S-GSSSG, DRG, lumber spinal cord, brain, liver, and plasma were obtained and snap frozen for later analysis.
We examined whether administrated GSSSG via oral gavage reaches peripheral nervous system using liquid chromatography with tandem mass spectrometry (LC-MS/MS). Fifty mg/kg of ^34S-labeled GSSSG (in which the middle sulfur, that is a sulfane sulfur, was replaced to ^34S; G-^32S-^34S-^32S-G) was orally administered to mice. Two hours after administration, plasma and tissue from liver, brain, lumbar spinal cord, and lumbar DRG (L1 to L6) were collected and immediately frozen at −80° C. Tissues were homogenized with 5 mM of β-(4-hydroxyphenyl)ethyl iodoacetamide (HPE-IAM) (Santa Cruz, Cat No. SC-473766) and incubated for 20 minutes at 37° C. to promote HPE-IAM reaction that stabilizes persulfide residues. Proteins were removed by centrifugation at 15,000 g for 10 minutes at 4° C., and total protein concentration was measured by BCA assay. The supernatant was diluted by 0.1% formic acid for LC-MS/MS analysis. The amount of ^34S-labeled GSSSG was quantified in selective reaction monitoring (SRM) with precursor ion (647.14 m/z), product ion (389.1 m/z), and HCD (21 v) and normalized by protein concentration. The ratio of ^34S-labeled reactive sulfur species to endogenous (^32S) reactive sulfur species (GSSH, CysSSH, and CysSSSCys) were also calculated from their peak area measured by Dionex UltiMate 3000 RS UPLC-Orbitrap Exploris 480 mass spectrometer (Thermo Scientific Scientific, Waltham, MA, USA). In brief, samples were subjected to the UPLC system with a Hypersil Gold C-18 (100×2.1 mm, 3.0 μm, Thermo Fisher Scientific) column and they were eluted by using a linear methanol gradient of the mobile phase (0-90%, 15 minutes) in the presence of 0.1% formic acid at a flow rate of 0.2 ml/minutes at 40 degrees. The raw data were obtained by Compound Discoverer software 3.3. Molecular weight of reactive sulfur species combined with HPE-IAM were reported in previous studies.

Structure (SMILES) | axonal length (Sholl analysis) (primary DRG neurons) | water solubility [1] [mg/mL] | stable in solution [2] | ratio of ^34S-labelled CysSSH to endogenous CysSSH ([3]; all 4 tissues) | ratio of ^34S-labelled CysSSSCys to endogenous CysSSSCys ([3]; all 4 tissues) | ratio of ^34S-labelled GSSH to endogenous GSSH ([3]; all 4 tissues (lumber DRG, lumber spinal cord, brain, liver)) | average concentration of ^34S-labelled GSSSG in brain ([3]; mice) [pmol/mg protein] | average concentration of ^34S-labelled GSSSG in liver ([3]; mice) [pmol/mg protein] | average concentration of ^34S-labelled GSSSG in lumber DRG ([3]; mice) [pmol/mg protein] | average concentration of ^34S-labelled GSSSG in lumber spinal cord ([3]; mice) [pmol/mg protein]
CC(C)(CO)[C@@H](O)C(=O)NCCC(=O)NCCSSSCCNC(=O)CCNC(=O)[C@H](O)C(C)(C)CO [PTN-SSS, pantethine trisulfide] | prevented the axonal shortening induced by paclitaxel | > 50 | at least 4 days |  |  |  |  |  |  | 
N[C@@H](CCC(=O)N[C@@H](CS[34S]SC[C@H](NC(=O)CC[C@H](N)C(=O)O)C(=O)NCC(=O)O)C(=O)NCC(=O)O)C(=O)O [^34S-labelled GSSSG] |  |  |  | more than 10 fold | more than 10 fold | more than 10 fold | 142 | 158 | 415 | 518
